The values that follow are results of earlier work, collected in patent US9072714B2, “Fatty acids for use as a medicament” (Lipid Pharmaceuticals ehf., priority 2008, dated 2015).

The conditions of the data set: laxative, by class and site of action.

As to `CCCCC(CC)COC(=O)CC(C(=O)OCC(CC)CCCC)S(=O)(=O)O` (centres unmarked) [Docusate], the Onset of action is 12 to 72 h.

With `O=C1OC(c2ccc(O)cc2)(c2ccc(O)cc2)c2ccccc21` [Phenolphthalein], the Onset of action was 6 to 8 h.
